Experimental data from patent US20090326003A1, “PYRAZOLO (3, 4-B) PYRIDINE DERIVATIVES AS PDE4 INHIBITORS” (priority 2006, published 2009).

What was measured:
[1] = tested on: TNF-α production in human PBMC (peripheral blood mononuclear cells); assay: Inhibition of TNF-alpha production in human PBMC (IGEN technology); assay type: cell-based; settings: inhibition of LPS-stimulated TNF-α production in human PBMC; measured and/or mean; read-out: PBMC pIC50 (IGEN assay) (converted)
Protocol: Test compounds are prepared as a ca. 10 mM stock solution in DMSO and a dilution series prepared in DMSO with 8 successive 3fold dilutions, either directly from the 10 mM stock solution or from a more dilute solution in DMSO. The compound is added to assay plates using a Biomek Fx liquid handling robot.
PBMC cells (peripheral blood mononuclear cells) are prepared from heparinised human blood from normal volunteers by centrifugation on histopaque at ca. 1000 g for ca. 30 minutes. The cells are collected from the interface, washed by centrifugation (ca. 1300 g, ca. 10 minutes) and resuspended in assay buffer (RPMI 1640 containing 10% foetal calf serum, 1% L-glutamine and 1% penicillin/streptomycin) at 1×10^6 cells/ml. Ca. 50 μl (ca. 50 ul) of cells are added to microtitre wells containing ca. 0.5 or ca. 1.0 μl (ul) of an appropriately diluted compound solution. Ca. […]
The supernatant is removed and the concentrations of TNF-α are determined by electrochemiluminescence assay using the IGEN technology or by ELISA (see below).
Ca. […] 50 μl (ul) of streptavidin/biotinylated anti-TNF-α antibody mix, ca. 25 μl ruthenium tagged anti-TNF-α monoclonal and ca. 100 μl PBS containing 0.1% bovine serum albumin are added to each well and the plates are sealed and shaken for ca. 2 hours before being read on an IGEN instrument.

[2] = tested on: TNF-α production in human PBMC (peripheral blood mononuclear cells); assay: Inhibition of TNF-alpha production in human PBMC (MSD technology); assay type: cell-based; settings: inhibition of LPS-stimulated TNF-α production in human PBMC; measured and/or mean; read-out: PBMC pIC50 (MSD assay) (converted)
Protocol: A 96-well plate (96 MicroWell™ Plates Nunclon™Δ-High Flange Design, Fisher Scientific UK, Bishop Meadow Road, Loughborough LE 11 5 RG, Leicestershire, UK) is prepared by initially adding to column 1 ca. 10 mM of test compound dissolved in DMSO. […] The compound is further diluted with DMSO into columns 2 to 9 by 8 successive 3fold dilutions using the Biomek® FX Laboratory Automation Workstation (Beckman Coulter, Inc., 4300 N. Harbor Boulevard, P.O. Box 3100, Fullerton, Calif. 92834-3100 USA). Column 10 is used as a DMSO negative control (High Signal, 0% response), whilst column 11, which contains 10 mM of the PDE4 inhibitor roflumilast, is used as a positive control (Low Signal, 100% response). About 1 μl (about 1 ul) of compound is transferred to the compound plate using the Biomek® FX.
PBMC cells (peripheral blood mononuclear cells) are prepared from heparinised human blood (using 1% v/v Heparin Sodium 10001 U/ml Endotoxin Free, Leo Laboratories Ltd., Cashel Road, Dublin 12. Ireland, Cat No: PL0043/0149) from normal volunteers using the Accuspin™ System-Histopaque®-1077 essentially (Sigma-Aldrich Company Ltd., The Old Brickyard New Rd, Gillingham Dorset SP8 4XT). About 20 ml of blood is overlaid onto 15 ml Histopaque® in Accuspin™ tubes. The tube is then centrifuged at about 800 g for ca. 20 minutes. The cells are collected from the interface, washed by centrifugation (ca. 1300 g, ca. 10 minutes) and resuspended in RPMI1640 medium (Low endotoxin RPMI1640 medium, Cat No: 31870-025, Invitrogen Corporation Invitrogen Ltd, 3 Fountain Drive, Inchinnan Business Park, Paisley PA4 9RF, UK) containing 10% foetal calf serum, 1% L-glutamine (Invitrogen Corporation, Cat No: 25030024) and 1% penicillin/streptomycin (Invitrogen Corporation, Cat No: 15140-122). Viable cells are counted by trypan blue staining and diluted to 1×10^6 viable cells/ml. About 50 μl (about 50 ul) of diluted cells and about 75 μl (about 75 ul) of LPS (ca. 1 ng/ml final; Sigma Cat No: L-6386) are added to the compound plate, which is then incubated at 37° C., 5% CO2, for 20 hours.
The supernatant is removed and the concentrations of TNF-α are determined by electrochemiluminescence assay using the Meso Scale Discovery (MSD) technology (Meso Scale Discovery, 9238 Gaither Road, Gaithersburg, Md. 20877, USA). See the “TNF-α (TNF-alpha) MSD Assay” described below for typical details.
Using the Biomek FX, 25 μl (25 ul) of MSD Human Serum Cytokine Assay Diluent (Meso Scale Discovery, 9238 Gaither Road, Gaithersburg, Md. 20877) is added to a 96-well High-Bind MSD plate pre-coated with anti-hTNF alpha capture antibody (MA6000) and then incubated for 24 hours at 4° C. to prevent non-specific binding. […]
For the PBMC assay, about 20 μl (ul) of diluted sulfo-TAG antibody (ca. 1 μg/ml final) is added to each well, and the plates/wells are shaken at room temperature for 2 hours. Finally, about 90 μl (ul) of MSD Read Buffer P (diluted to 2.5 times with distilled water) is added and the plates are read on a MSD Sector 6000.
Data analysis is performed with ActivityBase/XC50 module (ID Business Solutions Ltd., 2 Occam Court, Surrey Research Park, Guildford, Surrey, GU2 7QB UK). Data are normalized and expressed as % inhibition using the formula 100*((U-C1)/(C2-C1)) where U is the unknown value, C1 is the average of the high signal (0%) control wells (column 10), and C2 is the average of the low signal (100%) control wells (column 11). […]

SMILES | IC50 [1] [pM] | IC50 [2] [pM]
CCc1nc2c(cnn2CC)c(NC2CCOCC2)c1CNC(=O)c1ccc(-c2ccc(C(=O)NCc3c(CC)nc4c(cnn4CC)c3NC3CCOCC3)cc2)cc1 [Example 23, N,N′-bis{[1,6-diethyl-4-(tetrahydro-2H-pyran-4-ylamino)-1H-pyrazolo[3,4-b]pyridin-5-yl]methyl}-4,4′-biphenyldicarboxamide] | ~50.1 | ~126
CCn1ncc2c(NC3CCOCC3)c(CNC(=O)c3cccc(-c4cccc(C(=O)NCc5c(C)nc6c(cnn6CC)c5NC5CCOCC5)c4)c3)c(C)nc21 [Example 29, N,N′-bis{[1-ethyl-6-methyl-4-(tetrahydro-2H-pyran-4-ylamino)-1H-pyrazolo[3,4-b]pyridin-5-yl]methyl}-3,3′-biphenyldicarboxamide] | – | ~794
CCc1nc2c(cnn2CC)c(NC2CCOCC2)c1CNC(=O)c1ccc(C(=O)NCc2c(CC)nc3c(cnn3CC)c2NC2CCOCC2)o1 [Example 35, N,N′-bis{[1,6-diethyl-4-(tetrahydro-2H-pyran-4-ylamino)-1H-pyrazolo[3,4-b]pyridin-5-yl]methyl}-2,5furandicarboxamide] | – | ~100
